Data: patent US20020049157A1, “Use of proteasome inhibitors for treating cancer, inflammation, autoimmune disease, graft rejection and septic shock” (priority 1998, published 2002)

Experiments:
Bcl-xL = assay: Immunoblotting of Bcl-xL in Bcl-xL transfected Namalwa cells; assay type: cell-based, human; conditions: lactacystin 6 μM; 6 h
Procedure: Jurkat cells, wild type Namalwa cells and Bcl-xL transfected Namalwa cells were treated with medium (lanes 1), staurosporine (0.3 μM, lanes 2) and lactacystin (6 μM, lanes 3) for 6 H. The proteins from the mitochondrial fraction of these cells were analyzed by immunoblotting and the amount of Bik, Bcl-xL, Bax, and Bak evaluated. The same membranes were used sequentially and probed with different antibodies against these factors. A nonspecific band recognized by a monoclonal antibody against cytochrome […] (COX) was used as control for even sample loading in the lanes.

Jurkat cells = assay: Cell cycle progress in synchronized Jurkat cells (propidium iodide flow cytometry); assay type: cell-based
Procedure: For the last 3 h of the treatment, LAC (6 μM) was added to the cultures destined to be treated by LAC later. The cells were then released by washing out nocodazole, and recultured in complete medium with or without 6 μM LAC. The cells were sampled at 0 h, 4 h and 8 h after the G2/M release, stained with propidium iodide, and analyzed with flow cytometry.
B. LAC slows the cell cycle progress from the G1/S boundary to the G2/M phase in synchronized Jurkat cells Jurkat cells were synchronized at the G1/S by isoleucine starvation followed by a hydroxyurea treatment. The synchronized cells were released by washing out hydroxyurea and were cultured in complete medium in the absence or presence of LAC (6 μM). The cells were sampled at 0 h, 3 h, 6 h, 9 h, 12 h, 15 h and 24 h after the release, and were stained with propidium iodide and analyzed with flow cytometry.
We used synchronized Jurkat cells to identify the LAC-sensitive phase(s) of the cell cycle. Jurkat cells were first synchronized at the G2/M boundary by nocodazole (FIG. 6A). […]
We next studied requirement of the proteasome activity for the progression from the G1/S boundary to the G2/M phase. […] It is to be noted that although the percentage of cells in the S/G2/M phase in the LAC-treated sample was similar to that of controls (the inset table of FIG. 6B), the peak of fluorescence was lagged behind (histogram array). […]

p27^Kip1 = assay: Immunoblotting of p27Kip1 level in T cells; assay type: cell-based, human; conditions: PHA, LAC 10 μM added once at 0 h
Procedure: Tonsillar T cells were stimulated with PHA (2 μg/ml) for 16 h, 40 or 64 h in the absence or presence of LAC (10 μM). For the 16 h and 40 h culture, LAC was added once at 0 h. For the 64 h culture, LAC was added once at 40 h. The cell lysates were resolved in 10% SDS-PAGE, and blotted onto PVDF membranes. The membranes were hybridized with rabbit anti-p27^Kip1 antisera (FIG. 9A) or with anti-p21^Cip1 antisera (FIG. 9B) followed by ^125-protein A. The experiments were performed three times, and similar results were obtained. Representative data is shown.
In addition to the cyclin levels, the CDK activities are also controlled by several low molecular weight inhibitors. We have examined in this study the effect of the proteasome on the CDK inhibitors p27^Kip1 (Hall et al., 1995, supra) and p21^Cip1 (el-Deiry et al., 1993, Cell 75:817). […] This is in agreement with previous reports (Hengst et al., 1996, Science 271:1861; Nourse et al., 1994, Nature 372:570). […] The blockage was less obvious when assayed at 40 h, probably because the gradual loss of LAC activity during the 40 h culture. […]
Immunoblotting was employed to evaluate the levels of Cyclin E, cyclin A, p21^Cip1 and p27^Kip1. […] The cleared lysates were quantitated for protein concentrations. […] The signals on the membrane were detected by [^125I]-protein A followed by autoradiography.

CC(=O)N[C@@H](CSC(=O)[C@]1([C@@H](O)C(C)C)NC(=O)[C@H](C)[C@@H]1O)C(=O)O [LAC, lactacystin]
Bcl-xL level in transfected Namalwa cells (Bcl-xL): accumulation of Bcl-xL | cell cycle progression from the G1/S boundary to the G2/M phase (Jurkat cells; HU-synchronized, LAC 6 μM added immediately after release): slowed but did not block | progress from G2/M through M phase to G1 phase (Jurkat cells; nocodazole-synchronized, LAC 6 μM 3 h before and after release): at a similar pace as the control cells | decrease (degradation) of p27Kip1 (p27^Kip1; assayed at 16 h): significantly blocked the decrease | blockage of p27Kip1 decrease (p27^Kip1; assayed at 40 h): less obvious
